# Measured values taken from patent US20250313575A1, “MACROCYCLES AS LRRK2 INHIBITORS, PHARMACEUTICAL COMPOSITIONS, AND USES THEREOF” (Merck Sharp & Dohme LLC, priority 2022, published 2025).
# Target: GST-tagged truncated human mutant G2019S LRRK2 (Homo sapiens (Human), UniProt Q5S007, G2019S)
# Experiment: LRRK2 G2019S Km ATP LanthaScreen assay
# Format: biochemical
# Conditions: G2019S LRRK2, 134 μM ATP (Km ATP), LRRKtide substrate
# Procedure: Unless otherwise noted, all reactions are magnetically allowed to stir, diethyl ether used in the experiments described below is Fisher ACS certified material stabilized with BHT, and “concentrated” and/or “solvent removed under reduced pressure” means evaporating the solvent from a solution or mixture using a rotary evaporator or vacuum pump. Unless otherwise noted, flash chromatography is carried out on a Teledyne Isco (Lincoln, NE), Analogix (Burlington, WI), or Biotage (Stockholm, SWE) automated chromatography system using a commercially available cartridge as the column. Columns may be purchased from Teledyne Isco, Analogix, Biotage, Varian (Palo Alto, CA), or Supelco (Bellefonte, PA) and are usually filled with silica gel as the stationary phase. Reverse phase prep-HPLC conditions, where used, can be found at the end of each experimental section. Aqueous solutions were concentrated on a Genevac (Ipswich, ENG) or by freeze-drying/lyophilization. Unless otherwise noted, all LRRK2 pIC50 data presented in tables refers to the LRRK2 G2019S Km ATP LanthaScreen™ assay (Life Technologies Corp., Carlsbad, CA) that is described in the Biological Assay section.
# The LRRK2 kinase activity reported herein as IC50 values was determined with LanthaScreen™ technology from Life Technologies Corporation (Carlsbad, CA) using GST-tagged truncated human mutant G2019S LRRK2 in the presence of the fluorescein-labeled peptide substrate LRRKtide, also from Life Technologies. The data presented for the […] depending on the specific conditions and reagents used. Assays were performed in the presence of 134 μM ATP (Km ATP). Upon completion, the assay was stopped and phosphorylated substrate detected with a terbium (Tb)-labeled anti-pERM antibody (cat. no. PV4898). The compound dose response was prepared by diluting a 10 mM stock of compound to a maximum concentration of 9.99 μM in 100% dimethylsulfoxide followed by custom fold serial dilution in dimethylsulfoxide nine times. Twenty nanoliters of each dilution was spotted via a Labcyte Echo onto a 384-well black-sided plate (Corning 3575) followed by 15 μl of a 1.25 nM enzyme solution in 1× assay buffer (50 mM Tris pH 8.5, 10 mM MgCl2, 0.01% Brij-35, 1 mM EGTA, 2 mM dithiothreitol, 0.05 mM sodium orthovanadate). Following a 15-minute incubation at room temperature, the kinase reaction was started with the addition of 5 μl of 400 nM fluorescein-labeled LRRKtide peptide substrate and 134 μM ATP solution in 1× assay buffer. The reaction was allowed to progress at ambient temperature for 90 minutes. The reaction was then stopped by the addition of 20 μl of TR-FRET Dilution Buffer (Life Technologies, Carlsbad, CA) containing 2 nM Tb-labeled anti-phospho LRRKtide antibody and 10 mM EDTA (Life Technologies, Carlsbad, CA). After an incubation of 1 h at room temperature, the plate was read on an EnVision multimode plate reader (Perkin Elmer, Waltham, MA) with an excitation wavelength of 337 nm (Laser) and a reading emission at both 520 and 495 nm. Compound IC50s were interpolated from nonlinear regression best fits of the log of the final compound concentration, plotted as a function of the 520/495-nm emission ratio using Activity base. Abase uses a 4 parameter (4P) logistic fit based on the Levenberg-Marquardt algorithm.
# Sequence of GST-tagged truncated human mutant G2019S LRRK2 (Q5S007 970-2527 G2019S): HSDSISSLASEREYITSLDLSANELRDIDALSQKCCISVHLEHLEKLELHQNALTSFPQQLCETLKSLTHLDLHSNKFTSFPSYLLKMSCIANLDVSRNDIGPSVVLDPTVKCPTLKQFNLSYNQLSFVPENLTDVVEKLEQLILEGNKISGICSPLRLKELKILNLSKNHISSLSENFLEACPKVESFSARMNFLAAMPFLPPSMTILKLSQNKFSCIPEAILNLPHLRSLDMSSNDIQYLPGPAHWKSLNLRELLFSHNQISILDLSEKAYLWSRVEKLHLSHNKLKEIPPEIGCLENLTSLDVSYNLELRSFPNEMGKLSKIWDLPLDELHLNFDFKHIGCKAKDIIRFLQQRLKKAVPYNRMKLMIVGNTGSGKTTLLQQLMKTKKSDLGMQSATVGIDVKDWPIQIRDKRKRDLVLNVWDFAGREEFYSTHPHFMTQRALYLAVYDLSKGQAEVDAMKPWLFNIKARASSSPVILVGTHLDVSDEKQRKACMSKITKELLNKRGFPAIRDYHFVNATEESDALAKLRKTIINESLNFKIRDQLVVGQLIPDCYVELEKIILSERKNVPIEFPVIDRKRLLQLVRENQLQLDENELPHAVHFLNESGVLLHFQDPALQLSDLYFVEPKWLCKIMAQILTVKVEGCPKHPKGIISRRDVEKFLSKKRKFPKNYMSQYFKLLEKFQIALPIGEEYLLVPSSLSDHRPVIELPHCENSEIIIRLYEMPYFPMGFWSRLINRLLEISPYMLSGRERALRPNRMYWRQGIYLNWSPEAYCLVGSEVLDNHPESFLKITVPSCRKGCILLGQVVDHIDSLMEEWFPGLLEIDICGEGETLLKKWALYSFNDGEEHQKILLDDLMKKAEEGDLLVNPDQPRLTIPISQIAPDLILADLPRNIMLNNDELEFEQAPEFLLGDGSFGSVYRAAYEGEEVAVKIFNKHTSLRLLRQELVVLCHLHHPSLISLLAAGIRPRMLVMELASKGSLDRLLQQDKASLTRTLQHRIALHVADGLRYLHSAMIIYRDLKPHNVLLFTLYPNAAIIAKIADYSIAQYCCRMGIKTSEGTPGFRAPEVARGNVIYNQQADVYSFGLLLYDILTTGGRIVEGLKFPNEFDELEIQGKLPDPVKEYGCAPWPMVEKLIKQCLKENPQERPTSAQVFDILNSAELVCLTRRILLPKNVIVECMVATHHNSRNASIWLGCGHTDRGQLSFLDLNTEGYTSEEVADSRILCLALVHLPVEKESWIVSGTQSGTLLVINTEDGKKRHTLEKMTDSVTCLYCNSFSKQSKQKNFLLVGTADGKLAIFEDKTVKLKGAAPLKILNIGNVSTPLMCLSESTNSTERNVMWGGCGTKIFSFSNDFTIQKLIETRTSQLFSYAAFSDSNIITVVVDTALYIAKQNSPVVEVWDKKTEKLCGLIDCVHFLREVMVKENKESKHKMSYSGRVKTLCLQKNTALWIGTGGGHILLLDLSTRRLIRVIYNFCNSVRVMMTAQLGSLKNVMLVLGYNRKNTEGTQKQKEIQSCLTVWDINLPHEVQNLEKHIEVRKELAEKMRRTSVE
row,Compound,LRRK2 pIC50
1,"Cc1nn(C2CCC2)c2c1CC[C@@H]1COC[C@H]1Nc1nc(ncc1C(F)(F)F)N2 (single isomer, unassigned) [Ex-12.1, (10aS,13aS)- or (10aR,13aR)-3-Cyclobutyl-1-methyl-8-(trifluoromethyl)-3,4,10a,11,13,13a,14,15-octahydro-10H-5,9-(azeno)furo[3,4-h]pyrazolo[4,3-l][1,3,7]triazacyclotridecine]",>10.09
2,"Cc1nn2c(c1C)Nc1ncc(C(F)(F)F)c(n1)N[C@@H](C)CCC2 (single isomer, unassigned) [Ex-16.1, 8,14,15-Trimethyl-5-(trifluoromethyl)-8,9,10,11-tetrahydro-1H,7H-2,6-(azeno)pyrazolo[1,5-a][1,3,5,9]tetraazacyclotridecine]",7.70
3,"Cc1c2c(nn1C1CC1)Nc1ncc(C(F)(F)F)c(n1)N[C@@H](C)CCO2 (single isomer, unassigned) [Ex-17.1, (R)- or (S)-2-cyclopropyl-3,7-dimethyl-10-(trifluoromethyl)-2,5,6,7,8,14-hexahydro-9,13-(azeno)pyrazolo[4,3-b][1]oxa[4,6,10]triazacyclotridecine]",6.63
4,"Cc1c2c(nn1C1CC1)Nc1ncc(C(F)(F)F)c(n1)N[C@H](C)CCO2 (single isomer, unassigned) [Ex-17.2, (R)- or (S)-2-cyclopropyl-3,7-dimethyl-10-(trifluoromethyl)-2,5,6,7,8,14-hexahydro-9,13-(azeno)pyrazolo[4,3-b][1]oxa[4,6,10]triazacyclotridecine]",8.24
5,"Cc1nn(C2CCC2)c2c1OC[C@H]1CN(C[C@@H]1C)c1nc(ncc1C(F)(F)F)N2 (single isomer, unassigned) [Ex-20.1, (6S,7S)- or (6R,7R)-1-Cyclobutyl-3,7-dimethyl-11-(trifluoromethyl)-1,5,6,7,8,15-hexahydro-10,14-(azeno)-6,9-methanopyrazolo[4,3-b][1]oxa[4,6,10]triazacyclotetradecine]",5.84
6,"Cc1nn(C2CCC2)c2c1OC[C@@H]1CN(C[C@H]1C)c1nc(ncc1C(F)(F)F)N2 (single isomer, unassigned) [Ex-20.2, (6S,7S)- or (6R,7R)-1-Cyclobutyl-3,7-dimethyl-11-(trifluoromethyl)-1,5,6,7,8,15-hexahydro-10,14-(azeno)-6,9-methanopyrazolo[4,3-b][1]oxa[4,6,10]triazacyclotetradecine]",9.39
7,"Cc1nn(C2CCC2)c2c1OC[C@H]1CN(CCO1)c1nc(ncc1C(F)(F)F)N2 (single isomer, unassigned) [Ex-21.1, (6R)- or (6S)-1-cyclobutyl-3-methyl-12-(trifluoromethyl)-1,5,6,8,9,16-hexahydro-11,15-(azeno)-6,10-methanopyrazolo[4,3-e][1,4]dioxa[7,9,13]triazacyclopentadecine]",6.09
8,"Cc1nn(C2CCC2)c2c1OC[C@@H]1CN(CCO1)c1nc(ncc1C(F)(F)F)N2 (single isomer, unassigned) [Ex-21.2, (6R)- or (6S)-1-cyclobutyl-3-methyl-12-(trifluoromethyl)-1,5,6,8,9,16-hexahydro-11,15-(azeno)-6,10-methanopyrazolo[4,3-e][1,4]dioxa[7,9,13]triazacyclopentadecine]",8.07
9,"Cc1nn(C(C)(C)C#N)c2c1Nc1ncc(C(F)(F)F)c(n1)N[C@@H]1CCC1CO2 (stereo partly drawn) [Ex-1.1, 2-Methyl-2-((10aR,12aR)-3-methyl-8-(trifluoromethyl)-10,10a,11,12,12a,13-hexahydro-5,9-(azeno)cyclobuta[k]pyrazolo[3,4-b][1]oxa[4,6,10]triazacyclotridecin-1 (4H)-yl)propanenitrile]",>10.09
10,"Cn1nc(C(F)(F)F)c2c1OCC1COC[C@H]1Nc1nc(ncc1C(F)(F)F)N2 (stereo partly drawn) [Ex-1.2, (10aS,13aS)-1-Methyl-3,8-bis(trifluoromethyl)-1,4,10a,11,13a,14-hexahydro-10H,13H-5,9-(azeno)furo[3,4-k]pyrazolo[3,4-b][1]oxa[4,6,10]triazacyclotridecine]",>10.09
11,"CCn1nc(C)c2c1OCC1(CC1)CNc1nc(ncc1C(F)(F)F)N2 [Ex-1.3, 1′-ethyl-3′-methyl-8′-(trifluoromethyl)-1′,4′,10′,11′-tetrahydro-13′H-spiro[cyclopropane-1,12′-[5,9](azeno)pyrazolo[3,4-b][1]oxa[4,6,10]triazacyclotridecine]]",9.07
12,"Cc1nn(C)c2c1Nc1ncc(C(F)(F)F)c(n1)N[C@H](C)CCO2 [Ex-1.4, (R)-1,3,11-trimethyl-8-(trifluoromethyl)-1,4,10,11,12,13-hexahydro-5,9-(azeno)pyrazolo[3,4-b][1]oxa[4,6,10]triazacyclotridecine]",8.93
13,"COC(=O)C(C)(C)n1nc(C)c2c1OCC[C@@H](C)Nc1nc(ncc1C(F)(F)F)N2 [Ex-1.5, methyl (R)-2-(3,11-dimethyl-8-(trifluoromethyl)-10,11,12,13-tetrahydro-5,9-(azeno)pyrazolo[3,4-b][1]oxa[4,6,10]triazacyclotridecin-1(4H)-yl)-2-methylpropanoate]",8.73
14,"Cn1nc(C2CC2)c2c1OCC1COCC1Nc1nc(ncc1C(F)(F)F)N2 [Ex-1.6, (10aS,13aS)- or (10aR,13aR)-3-cyclopropyl-1-methyl-8-(trifluoromethyl)-1,4,10a,11,13a,14-hexahydro-10H,13H-5,9-(azeno)furo[3,4-k]pyrazolo[3,4-b][1]oxa[4,6,10]triazacyclotridecine]",6.92
15,"Cn1nc(C2CC2)c2c1OCC1COCC1Nc1nc(ncc1C(F)(F)F)N2 [Ex-1.7, (10aS,13aS)- or (10aR,13aR)-3-cyclopropyl-1-methyl-8-(trifluoromethyl)-1,4,10a,11,13a,14-hexahydro-10H,13H-5,9-(azeno)furo[3,4-k]pyrazolo[3,4-b][1]oxa[4,6,10]triazacyclotridecine]",>10.09

# Same assay, conditions: G2019S LRRK2, 134 μM ATP (Km ATP), LRRKtide substrate; read-out: LRRK2 pIC50 (converted)
row,Compound,IC50
1,"Cc1nn(C)c2c1CCC[C@@H](C)Nc1nc(ncc1C(F)(F)F)N2 (single isomer, unassigned) [Ex-11.2, (R)- or (S)-1,3,7-Trimethyl-10-(trifluoromethyl)-4,5,6,7,8,14-hexahydro-1H-9,13-(azeno)pyrazolo[4,3-l][1,3,7]triazacyclotridecine]",3.16 nM
2,"Cc1nn(C2CCC2)c2c1CC[C@@H]1COC[C@H]1Nc1nc(ncc1C(F)(F)F)N2 (single isomer, unassigned) [Ex-12.2, (10aS,13aS)- or (10aR,13aR)-3-Cyclobutyl-1-methyl-8-(trifluoromethyl)-3,4,10a,11,13,13a,14,15-octahydro-10H-5,9-(azeno)furo[3,4-h]pyrazolo[4,3-l][1,3,7]triazacyclotridecine]",0.24 nM
3,"Cc1nn2c(c1C)Nc1ncc(C(F)(F)F)c(n1)N[C@@H](C)CCC2 (single isomer, unassigned) [Ex-16.2, 8,14,15-Trimethyl-5-(trifluoromethyl)-8,9,10,11-tetrahydro-1H,7H-2,6-(azeno)pyrazolo[1,5-a][1,3,5,9]tetraazacyclotridecine]",0.631 nM
4,"Cc1nn(C2CCC2)c2c1OCC[C@@H]1COCCN1c1nc(ncc1C(F)(F)F)N2 (single isomer, unassigned) [Ex-21.3, (R) or (S)-3-cyclobutyl-1-methyl-8-(trifluoromethyl)-3,4,11,12,14,14a,15,16-octahydro-5,9-(azeno)[1,4]oxazino[4,3-j]pyrazolo[4,3-b][1]oxa[4,6,10]triazacyclotridecine]",22.9 nM
5,"Cc1nn(C2CCC2)c2c1OCC[C@H]1COCCN1c1nc(ncc1C(F)(F)F)N2 (single isomer, unassigned) [Ex-21.4, (R) or (S)-3-cyclobutyl-1-methyl-8-(trifluoromethyl)-3,4,11,12,14,14a,15,16-octahydro-5,9-(azeno)[1,4]oxazino[4,3-j]pyrazolo[4,3-b][1]oxa[4,6,10]triazacyclotridecine]",2450 nM
